Data as given in patent US10294202B2, “Pyrrolidinones as herbicides” (FMC Corporation, priority 2013, dated 2019).

Experiments:
Assay in all cases: Test D pre-/postemergence herbicide test
radish, wild = format: in vivo, Raphanus raphanistrum; details: for Plant response rating: Postemergence, Radish, Wild, scale 0 to 100; for Plant response rating, Radish, Wild: Preemergence, scale 0 to 100 (0 no effect, 100 complete control)
Excerpt: (§1) Seeds of plant species selected from bluegrass (annual bluegrass, Poa annua), blackgrass (Alopecurus myosuroides), canarygrass (littleseed canarygrass, Phalaris minor), chickweed (common chickweed, Stellaria media), galium (catchweed bedstraw, Galium aparine), bromegrass, downy (downy bromegrass, Bromus tectorum), field poppy (Papaver rhoeas), field violet (Viola arvensis), foxtail, green (green foxtail, Setaria viridis), deadnettle (henbit deadnettle, Lamium amplexicaule), ryegrass, Italian (Italian ryegrass, Lolium multiflorum), kochia (Kochia scoparia), lambsquarters (Chenopodium album), oilseed rape (Brassica napus), pigweed (Amaranthus retroflexus), chamomile (scentless chamomile, Matricaria inodora), Russian thistle (Salsola kali), speedwell (bird's-eye speedwell, Veronica persica), barley, spring (spring barley, Hordeum vulgare), wheat, spring (spring wheat, Triticum aestivum), buckwheat, wild (wild buckwheat, Polygonum convolvulus), mustard, wild (wild mustard, Sinapis arvensis), oat, wild (wild oat, Avena fatua), radish, wild (wild radish, Raphanus raphanistrum), […]), barley, winter (winter barley, Hordeum vulgare), and wheat, winter (winter wheat, Triticum aestivum) were planted into a silt loam soil and treated preemergence with test chemicals formulated in a non-phytotoxic solvent mixture which included a surfactant. At the same time, these species were planted in pots containing Redi-Earth® planting medium (Scotts Company, 14111 Scottslawn Road, Marysville, Ohio 43041) comprising spaghnum peat moss, vermiculite, wetting agent and starter nutrients and treated with postemergence applications of the test chemicals formulated in the same manner. Plants ranged in height from 2 to 18 cm (1- to 4-leaf stage). Treated plants and controls were maintained in a controlled growth environment for 7 to 21 days after which time all species were compared to controls and visually evaluated. Plant response ratings, summarized in Table D, are based on a scale of 0 to 100 where 0 is no effect and 100 is complete control. A dash (-) response means no test result.

wheat, winter = format: in vivo, Triticum aestivum; details: for Plant response rating: Postemergence, Wheat, Winter, scale 0 to 100; for Plant response rating, Wheat, Winter: Preemergence, scale 0 to 100 (0 no effect, 100 complete control)
Excerpt: as §1

wheat, spring = format: in vivo, Triticum aestivum; details: for Plant response rating: Postemergence, Wheat, Spring, scale 0 to 100; for Plant response rating, Wheat, Spring: Preemergence, scale 0 to 100 (0 no effect, 100 complete control)
Excerpt: as §1

foxtail, green = format: in vivo, Setaria viridis; details: for Plant response rating: Foxtail, Green, scale 0 to 100; for Plant response rating, Foxtail, Green: scale 0 to 100 (0 no effect, 100 complete control)
Excerpt: as §1

field poppy = format: in vivo, Papaver rhoeas; details: for Plant response rating: Field Poppy, scale 0 to 100; for Plant response rating, Field Poppy: scale 0 to 100 (0 no effect, 100 complete control)
Excerpt: as §1

O=C1NCC(c2ccc(F)c(F)c2)C1C(=O)Nc1ccccc1C(F)(F)F (racemic) [Compound 6]
Plant response rating (radish, wild; 16 g ai/ha): 0 | Plant response rating (radish, wild; 31 g ai/ha): 0 | Plant response rating (radish, wild; 62 g ai/ha): 0 | Plant response rating (radish, wild; 125 g ai/ha): 0 | Plant response rating (radish, wild; 250 g ai/ha): 10 | Plant response rating, Radish, Wild (radish, wild; 16 g ai/ha): 0 | Plant response rating (wheat, winter; 16 g ai/ha): 0 | Plant response rating (wheat, winter; 31 g ai/ha): 0 | Plant response rating (wheat, winter; 62 g ai/ha): 0 | Plant response rating (wheat, winter; 125 g ai/ha): 0 | Plant response rating (wheat, winter; 250 g ai/ha): 0 | Plant response rating, Wheat, Winter (wheat, winter; 62 g ai/ha): 0 | Plant response rating, Wheat, Winter (wheat, winter; 125 g ai/ha): 0 | Plant response rating, Wheat, Winter (wheat, winter; 16 g ai/ha): 0 | Plant response rating, Wheat, Winter (wheat, winter; 31 g ai/ha): 0 | Plant response rating, Wheat, Winter (wheat, winter; 250 g ai/ha): 0 | Plant response rating (wheat, spring; 16 g ai/ha): 0 | Plant response rating (wheat, spring; 31 g ai/ha): 0 | Plant response rating (wheat, spring; 62 g ai/ha): 5 | Plant response rating (wheat, spring; 125 g ai/ha): 5 | Plant response rating (wheat, spring; 250 g ai/ha): 5 | Plant response rating, Wheat, Spring (wheat, spring; 62 g ai/ha): 0 | Plant response rating, Wheat, Spring (wheat, spring; 125 g ai/ha): 0 | Plant response rating, Wheat, Spring (wheat, spring; 16 g ai/ha): 0 | Plant response rating, Wheat, Spring (wheat, spring; 31 g ai/ha): 0 | Plant response rating, Wheat, Spring (wheat, spring; 250 g ai/ha): 0 | Plant response rating (foxtail, green; Postemergence, 16 g ai/ha): 0 | Plant response rating (foxtail, green; Postemergence, 31 g ai/ha): 0 | Plant response rating (foxtail, green; Postemergence, 62 g ai/ha): 0 | Plant response rating (foxtail, green; Postemergence, 125 g ai/ha): 0 | Plant response rating (foxtail, green; Postemergence, 250 g ai/ha): 20 | Plant response rating, Foxtail, Green (foxtail, green; Preemergence, 62 g ai/ha): 0 | Plant response rating, Foxtail, Green (foxtail, green; Preemergence, 16 g ai/ha): 0 | Plant response rating, Foxtail, Green (foxtail, green; Preemergence, 31 g ai/ha): 0 | Plant response rating (foxtail, green; Preemergence, 125 g ai/ha): 0 | Plant response rating (foxtail, green; Preemergence, 250 g ai/ha): 10 | Plant response rating (field poppy; Postemergence, 16 g ai/ha): 0 | Plant response rating (field poppy; Postemergence, 31 g ai/ha): 0 | Plant response rating (field poppy; Postemergence, 62 g ai/ha): 20 | Plant response rating (field poppy; Postemergence, 125 g ai/ha): 20 | Plant response rating (field poppy; Postemergence, 250 g ai/ha): 30 | Plant response rating, Field Poppy (field poppy; Preemergence, 62 g ai/ha): 0 | Plant response rating, Field Poppy (field poppy; Preemergence, 31 g ai/ha): 0 | Plant response rating (field poppy; Preemergence, 125 g ai/ha): 0 | Plant response rating (field poppy; Preemergence, 250 g ai/ha): 100

O=C1NCC(c2ccc(F)c(C(F)(F)F)c2)C1C(=O)Nc1cccc(F)c1F (racemic) [Compound 77]
Plant response rating, Radish, Wild (radish, wild; 62 g ai/ha): 10 | Plant response rating, Radish, Wild (radish, wild; 125 g ai/ha): 25 | Plant response rating, Radish, Wild (radish, wild; 31 g ai/ha): 0 | Plant response rating, Radish, Wild (radish, wild; 250 g ai/ha): 30 | Plant response rating, Wheat, Winter (wheat, winter; 62 g ai/ha): 0 | Plant response rating, Wheat, Winter (wheat, winter; 125 g ai/ha): 25 | Plant response rating, Wheat, Winter (wheat, winter; 31 g ai/ha): 0 | Plant response rating, Wheat, Winter (wheat, winter; 250 g ai/ha): 55 | Plant response rating, Wheat, Spring (wheat, spring; 62 g ai/ha): 10 | Plant response rating, Wheat, Spring (wheat, spring; 125 g ai/ha): 20 | Plant response rating, Wheat, Spring (wheat, spring; 31 g ai/ha): 10 | Plant response rating, Wheat, Spring (wheat, spring; 250 g ai/ha): 25 | Plant response rating, Foxtail, Green (foxtail, green; Preemergence, 62 g ai/ha): 80 | Plant response rating, Foxtail, Green (foxtail, green; Preemergence, 31 g ai/ha): 15 | Plant response rating (foxtail, green; Preemergence, 125 g ai/ha): 70 | Plant response rating (foxtail, green; Preemergence, 250 g ai/ha): 85 | Plant response rating, Field Poppy (field poppy; Preemergence, 62 g ai/ha): 90 | Plant response rating, Field Poppy (field poppy; Preemergence, 31 g ai/ha): 75 | Plant response rating (field poppy; Preemergence, 125 g ai/ha): 95 | Plant response rating (field poppy; Preemergence, 250 g ai/ha): 100

O=C1NCC(c2cc(F)c(F)cc2F)C1C(=O)Nc1cccc(F)c1F (stereo not shown) [Compound 50]
Plant response rating (radish, wild; 16 g ai/ha): 0 | Plant response rating (radish, wild; 31 g ai/ha): 0 | Plant response rating (radish, wild; 62 g ai/ha): 0 | Plant response rating (radish, wild; 125 g ai/ha): 0 | Plant response rating, Radish, Wild (radish, wild; 62 g ai/ha): 0 | Plant response rating, Radish, Wild (radish, wild; 16 g ai/ha): 0 | Plant response rating (wheat, winter; 16 g ai/ha): 0 | Plant response rating (wheat, winter; 31 g ai/ha): 0 | Plant response rating (wheat, winter; 62 g ai/ha): 0 | Plant response rating (wheat, winter; 125 g ai/ha): 0 | Plant response rating, Wheat, Winter (wheat, winter; 62 g ai/ha): 0 | Plant response rating, Wheat, Winter (wheat, winter; 125 g ai/ha): 0 | Plant response rating, Wheat, Winter (wheat, winter; 16 g ai/ha): 0 | Plant response rating, Wheat, Winter (wheat, winter; 31 g ai/ha): 0 | Plant response rating (wheat, spring; 16 g ai/ha): 0 | Plant response rating (wheat, spring; 31 g ai/ha): 0 | Plant response rating (wheat, spring; 62 g ai/ha): 0 | Plant response rating (wheat, spring; 125 g ai/ha): 0 | Plant response rating, Wheat, Spring (wheat, spring; 62 g ai/ha): 0 | Plant response rating, Wheat, Spring (wheat, spring; 125 g ai/ha): 0 | Plant response rating, Wheat, Spring (wheat, spring; 16 g ai/ha): 0 | Plant response rating, Wheat, Spring (wheat, spring; 31 g ai/ha): 0 | Plant response rating (foxtail, green; Postemergence, 16 g ai/ha): 0 | Plant response rating (foxtail, green; Postemergence, 31 g ai/ha): 0 | Plant response rating (foxtail, green; Postemergence, 62 g ai/ha): 0 | Plant response rating (foxtail, green; Postemergence, 125 g ai/ha): 0 | Plant response rating, Foxtail, Green (foxtail, green; Preemergence, 62 g ai/ha): 50 | Plant response rating, Foxtail, Green (foxtail, green; Preemergence, 16 g ai/ha): 0 | Plant response rating, Foxtail, Green (foxtail, green; Preemergence, 31 g ai/ha): 0 | Plant response rating (foxtail, green; Preemergence, 125 g ai/ha): 40 | Plant response rating (field poppy; Postemergence, 16 g ai/ha): 0 | Plant response rating (field poppy; Postemergence, 31 g ai/ha): 0 | Plant response rating (field poppy; Postemergence, 62 g ai/ha): 0 | Plant response rating (field poppy; Postemergence, 125 g ai/ha): 0 | Plant response rating, Field Poppy (field poppy; Preemergence, 62 g ai/ha): 0 | Plant response rating, Field Poppy (field poppy; Preemergence, 16 g ai/ha): 0 | Plant response rating, Field Poppy (field poppy; Preemergence, 31 g ai/ha): 50 | Plant response rating (field poppy; Preemergence, 125 g ai/ha): 65
